Laboratory results taken from publication PMC8518639 (Chemmedchem, 2021).

Tests used:
PRDM9 = PRDM9 (Homo sapiens, UniProt Q9NQV7); assay: HotSpot Methyltransferase Profiling assay, PRDM9; type: biochemical
[1] = Caco-2 cell permeability assay; type: in vitro ADME; details: human; for Papp at 90 min, 10 μM: Caco-2, Papp
MLL4 complex = MLL4 complex (Homo sapiens, UniProt Q9UMN6); assay: HotSpot Methyltransferase Profiling assay, MLL4 complex; type: biochemical
SETD2 = SETD2 (Homo sapiens, UniProt Q9BYW2); assay: HotSpot Methyltransferase Profiling assay, SETD2; type: biochemical
Caco‐2 cells = assay: Caco-2 cell permeability assay; type: in vitro ADME; details: Caco‐2, 10 μM

Sequence of SETD2 (Q9BYW2 whole entry): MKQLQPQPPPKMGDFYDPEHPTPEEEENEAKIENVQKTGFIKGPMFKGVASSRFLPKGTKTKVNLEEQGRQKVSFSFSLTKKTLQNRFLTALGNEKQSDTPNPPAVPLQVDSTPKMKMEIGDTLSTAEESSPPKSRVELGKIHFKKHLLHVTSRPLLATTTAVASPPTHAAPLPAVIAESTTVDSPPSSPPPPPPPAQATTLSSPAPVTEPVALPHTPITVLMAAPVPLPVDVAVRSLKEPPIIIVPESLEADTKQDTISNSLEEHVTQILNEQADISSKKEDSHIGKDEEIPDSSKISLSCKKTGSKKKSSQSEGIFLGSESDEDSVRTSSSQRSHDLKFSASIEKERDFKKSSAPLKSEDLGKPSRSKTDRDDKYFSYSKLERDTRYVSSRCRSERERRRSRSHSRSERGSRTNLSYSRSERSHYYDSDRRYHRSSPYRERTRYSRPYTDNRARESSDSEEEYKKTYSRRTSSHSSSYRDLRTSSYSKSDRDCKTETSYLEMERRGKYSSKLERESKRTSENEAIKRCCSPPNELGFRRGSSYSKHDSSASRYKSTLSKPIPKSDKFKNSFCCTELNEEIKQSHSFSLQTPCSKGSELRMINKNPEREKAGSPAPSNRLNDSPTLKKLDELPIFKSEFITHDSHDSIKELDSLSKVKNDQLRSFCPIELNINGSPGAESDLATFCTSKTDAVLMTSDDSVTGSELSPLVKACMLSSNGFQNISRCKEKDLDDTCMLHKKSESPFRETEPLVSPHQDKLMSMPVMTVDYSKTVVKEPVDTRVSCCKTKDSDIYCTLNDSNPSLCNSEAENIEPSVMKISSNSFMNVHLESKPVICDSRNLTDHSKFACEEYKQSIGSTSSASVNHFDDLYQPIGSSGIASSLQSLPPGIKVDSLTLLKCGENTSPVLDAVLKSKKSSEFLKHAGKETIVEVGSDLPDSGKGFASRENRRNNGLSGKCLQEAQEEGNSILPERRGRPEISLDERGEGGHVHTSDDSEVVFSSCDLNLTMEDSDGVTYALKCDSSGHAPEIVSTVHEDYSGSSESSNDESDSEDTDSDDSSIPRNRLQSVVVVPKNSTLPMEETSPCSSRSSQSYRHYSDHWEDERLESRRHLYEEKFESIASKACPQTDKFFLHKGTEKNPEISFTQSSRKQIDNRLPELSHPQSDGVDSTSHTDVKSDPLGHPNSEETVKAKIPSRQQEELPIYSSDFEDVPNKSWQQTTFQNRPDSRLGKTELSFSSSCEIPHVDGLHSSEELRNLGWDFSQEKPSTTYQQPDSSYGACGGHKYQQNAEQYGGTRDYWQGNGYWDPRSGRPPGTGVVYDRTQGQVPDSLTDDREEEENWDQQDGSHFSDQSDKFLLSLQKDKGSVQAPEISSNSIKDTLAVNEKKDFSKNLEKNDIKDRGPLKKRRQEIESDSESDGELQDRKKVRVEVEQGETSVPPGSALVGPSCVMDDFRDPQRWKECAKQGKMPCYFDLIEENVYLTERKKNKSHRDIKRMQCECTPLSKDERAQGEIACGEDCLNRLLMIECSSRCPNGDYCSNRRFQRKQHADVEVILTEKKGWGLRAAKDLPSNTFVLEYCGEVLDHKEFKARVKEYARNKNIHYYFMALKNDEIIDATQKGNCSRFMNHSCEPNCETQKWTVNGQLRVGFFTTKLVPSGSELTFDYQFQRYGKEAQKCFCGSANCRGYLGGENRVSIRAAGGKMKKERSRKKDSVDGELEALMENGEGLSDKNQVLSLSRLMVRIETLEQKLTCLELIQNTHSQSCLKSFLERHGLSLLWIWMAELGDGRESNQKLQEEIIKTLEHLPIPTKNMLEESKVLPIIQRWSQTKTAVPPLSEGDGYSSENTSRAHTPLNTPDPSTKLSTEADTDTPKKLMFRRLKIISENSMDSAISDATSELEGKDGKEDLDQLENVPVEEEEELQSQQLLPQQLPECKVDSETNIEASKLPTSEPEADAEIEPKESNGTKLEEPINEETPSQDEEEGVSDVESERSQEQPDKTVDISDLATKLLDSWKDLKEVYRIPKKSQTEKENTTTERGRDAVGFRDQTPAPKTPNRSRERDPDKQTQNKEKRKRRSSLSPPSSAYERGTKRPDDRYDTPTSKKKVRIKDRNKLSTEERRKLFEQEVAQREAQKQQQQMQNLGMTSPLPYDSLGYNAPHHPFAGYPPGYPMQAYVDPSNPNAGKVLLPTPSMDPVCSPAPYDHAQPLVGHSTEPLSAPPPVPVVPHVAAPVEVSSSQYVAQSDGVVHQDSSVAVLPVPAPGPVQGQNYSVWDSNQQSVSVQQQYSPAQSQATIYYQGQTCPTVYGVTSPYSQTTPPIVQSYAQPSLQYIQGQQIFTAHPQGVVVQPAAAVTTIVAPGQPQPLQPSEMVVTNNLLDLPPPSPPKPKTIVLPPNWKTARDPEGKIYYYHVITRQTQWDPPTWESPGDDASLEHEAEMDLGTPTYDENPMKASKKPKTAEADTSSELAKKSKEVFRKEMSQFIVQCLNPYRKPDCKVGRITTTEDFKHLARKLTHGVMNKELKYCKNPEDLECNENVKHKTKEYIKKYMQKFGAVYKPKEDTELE
Sequence of PRDM9 (Q9NQV7 whole entry): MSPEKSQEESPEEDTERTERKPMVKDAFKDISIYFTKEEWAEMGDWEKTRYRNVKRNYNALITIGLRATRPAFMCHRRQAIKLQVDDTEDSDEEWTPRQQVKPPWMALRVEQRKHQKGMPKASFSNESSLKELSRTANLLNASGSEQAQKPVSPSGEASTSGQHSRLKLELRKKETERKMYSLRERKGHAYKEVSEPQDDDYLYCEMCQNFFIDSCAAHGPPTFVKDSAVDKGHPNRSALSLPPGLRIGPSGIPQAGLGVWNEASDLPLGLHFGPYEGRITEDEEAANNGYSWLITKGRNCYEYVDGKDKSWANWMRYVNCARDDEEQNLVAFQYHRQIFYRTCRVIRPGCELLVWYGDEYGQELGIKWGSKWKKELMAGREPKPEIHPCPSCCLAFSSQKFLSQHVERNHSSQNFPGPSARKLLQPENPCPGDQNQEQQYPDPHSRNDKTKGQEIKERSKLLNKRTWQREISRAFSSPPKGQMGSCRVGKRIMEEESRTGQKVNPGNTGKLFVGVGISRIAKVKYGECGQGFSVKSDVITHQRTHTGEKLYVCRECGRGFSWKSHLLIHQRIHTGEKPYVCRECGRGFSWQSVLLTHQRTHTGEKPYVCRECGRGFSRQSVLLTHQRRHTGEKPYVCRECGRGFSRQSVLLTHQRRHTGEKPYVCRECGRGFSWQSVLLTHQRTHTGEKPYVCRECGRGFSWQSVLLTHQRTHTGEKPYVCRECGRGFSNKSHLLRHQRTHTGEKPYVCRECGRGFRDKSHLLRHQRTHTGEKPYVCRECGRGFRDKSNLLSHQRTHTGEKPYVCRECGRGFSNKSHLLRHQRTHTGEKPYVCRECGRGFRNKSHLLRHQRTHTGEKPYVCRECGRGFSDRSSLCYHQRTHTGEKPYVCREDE
Sequence of MLL4 complex (Q9UMN6 2490-2715): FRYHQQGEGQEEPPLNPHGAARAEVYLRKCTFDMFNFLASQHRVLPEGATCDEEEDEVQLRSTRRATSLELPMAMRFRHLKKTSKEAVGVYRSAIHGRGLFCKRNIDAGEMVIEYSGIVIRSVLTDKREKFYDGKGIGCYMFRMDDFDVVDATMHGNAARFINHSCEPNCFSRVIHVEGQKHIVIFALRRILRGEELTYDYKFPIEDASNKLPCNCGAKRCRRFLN
Sequence of MLL4 complex (Q9C005 whole entry, further chain): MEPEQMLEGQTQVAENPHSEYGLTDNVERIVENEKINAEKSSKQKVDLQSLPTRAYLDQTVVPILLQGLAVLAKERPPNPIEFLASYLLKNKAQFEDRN
Sequence of MLL4 complex (Q15291 whole entry, further chain): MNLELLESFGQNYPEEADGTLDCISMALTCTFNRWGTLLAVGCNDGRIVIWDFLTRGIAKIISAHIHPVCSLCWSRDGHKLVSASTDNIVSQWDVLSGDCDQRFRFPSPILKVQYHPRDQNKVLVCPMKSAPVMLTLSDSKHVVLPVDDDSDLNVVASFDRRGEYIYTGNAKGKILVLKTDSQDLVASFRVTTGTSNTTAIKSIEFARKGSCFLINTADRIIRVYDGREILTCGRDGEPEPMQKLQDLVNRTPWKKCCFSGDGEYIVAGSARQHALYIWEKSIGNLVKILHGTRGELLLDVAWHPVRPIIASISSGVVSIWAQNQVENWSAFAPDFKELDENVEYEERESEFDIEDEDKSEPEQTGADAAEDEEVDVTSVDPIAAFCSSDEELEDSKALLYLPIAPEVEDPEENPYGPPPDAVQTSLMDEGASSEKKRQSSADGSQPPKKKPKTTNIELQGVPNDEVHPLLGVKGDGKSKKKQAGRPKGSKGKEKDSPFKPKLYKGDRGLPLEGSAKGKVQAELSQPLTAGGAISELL
Sequence of MLL4 complex (Q9UBL3 96-628, further chain): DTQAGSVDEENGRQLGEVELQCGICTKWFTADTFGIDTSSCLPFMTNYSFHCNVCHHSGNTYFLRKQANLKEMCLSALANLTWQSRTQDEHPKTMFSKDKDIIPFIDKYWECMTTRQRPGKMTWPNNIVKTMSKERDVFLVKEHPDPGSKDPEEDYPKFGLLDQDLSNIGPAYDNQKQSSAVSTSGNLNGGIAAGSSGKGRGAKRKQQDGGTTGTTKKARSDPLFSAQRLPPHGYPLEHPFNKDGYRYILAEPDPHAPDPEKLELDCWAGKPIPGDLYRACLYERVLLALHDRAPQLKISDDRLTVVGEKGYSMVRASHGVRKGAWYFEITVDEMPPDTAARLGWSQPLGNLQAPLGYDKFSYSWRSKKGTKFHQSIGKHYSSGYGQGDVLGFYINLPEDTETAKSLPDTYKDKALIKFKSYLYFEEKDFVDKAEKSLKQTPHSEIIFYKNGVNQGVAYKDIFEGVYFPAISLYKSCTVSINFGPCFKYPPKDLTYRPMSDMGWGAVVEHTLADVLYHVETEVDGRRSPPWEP

Row | Structure (SMILES) | IC50 (PRDM9) [µM] | efflux ratio at 90 min, 10 μM ([1]; Caco-2) | Papp at 90 min, 10 μM ([1]; Replicate 1, Direction A‐B) [×10⁻⁶ cm/s] | Papp at 90 min, 10 μM ([1]; Replicate 1, Direction B‐A) [×10⁻⁶ cm/s] | Papp at 90 min, 10 μM ([1]; Replicate 2, Direction A‐B) [×10⁻⁶ cm/s] | Papp at 90 min, 10 μM ([1]; Replicate 2, Direction B‐A) [×10⁻⁶ cm/s] | IC50 (MLL4 complex) [µM] | IC50 (SETD2) [µM] | Papp(B−A)/Papp(A−B) (efflux ratio) (Caco‐2 cells)
1 | CN1C(=O)[C@@]23C[C@]4([C@]56C[C@@]78SS[C@@](CO)(C(=O)N7[C@H]5Nc5ccccc56)N(C)C8=O)c5ccccc5N[C@@H]4N2C(=O)[C@]1(CO)SS3 [chaetocin] | 3.98 |  |  |  |  |  |  |  | 
2 | CC[C@H]1OC(=O)[C@H](C)[C@@H](O[C@H]2C[C@@](C)(OC)[C@@H](O)[C@H](C)O2)[C@H](C)[C@@H](O[C@@H]2O[C@H](C)C[C@H](N(C)C)[C@H]2O)[C@](C)(O)C[C@@H](C)C(=O)[C@H](C)[C@@H](O)[C@]1(C)O [Erythromycin] |  | 62.9 | 0.3 | 18.1 | 0.2 | 17.5 |  |  | 
3 | Nc1ncnc2c1ncn2[C@@H]1O[C@H](CSCC[C@H](N)C(=O)O)[C@@H](O)[C@H]1O [SAH, S‐(5′‐adenosyl)‐ʟ‐homocysteine] |  |  |  |  |  |  | 2.11 | 7.39 | 
4 | COCCc1ccc(OCC(O)CNC(C)C)cc1 (stereo not shown) [Metoprolol] |  |  | 33.7 | 34.7 | 31.4 | 33.3 |  |  | 1.1
